Test results as given in the kinase profiling compilation of Christmann-Franck et al. (2016).

What was measured:
Test in all cases: radiometric filter-binding kinase assay, Kinase HotSpot
Conditions in all cases: compound 0.5 µM; ATP 10 µM
[1] = biological target: CLK4 (human) (UniProt Q9HAZ1)
[2] = biological target: JAK1 JH1 catalytic (human) (UniProt P23458)
[3] = biological target: ROCK1 (human) (UniProt Q13464)
[4] = biological target: CSNK2A2 (human) (UniProt P19784)
[5] = biological target: PRKCD (human) (UniProt Q05655)
[6] = biological target: PAK4 (human) (UniProt O96013)
[7] = biological target: NUAK1 (human) (UniProt O60285)
[8] = biological target: STK39 (human) (UniProt Q9UEW8)
[9] = biological target: MAP3K11 (human) (UniProt Q16584)
[10] = biological target: DYRK1B (human) (UniProt Q9Y463)
[11] = biological target: CDK4 CCND1 (human) (UniProt P24385+P11802)
[12] = biological target: CHEK1 (human) (UniProt O14757)
[13] = biological target: MAPK11 (human) (UniProt Q15759)
[14] = biological target: MAPKAPK5 (human) (UniProt Q8IW41)
[15] = biological target: IKBKB (human) (UniProt O14920)
[16] = biological target: CSNK1G3 (human) (UniProt Q9Y6M4)
[17] = biological target: PIM3 (human) (UniProt Q86V86)
[18] = biological target: ROCK2 (human) (UniProt O75116)
[19] = biological target: SIK2 (human) (UniProt Q9H0K1)
[20] = biological target: PRKCH (human) (UniProt P24723)
[21] = biological target: CSNK1A1 (human) (UniProt P48729)
[22] = biological target: TBK1 (human) (UniProt Q9UHD2)
[23] = biological target: ABL1 (human) (UniProt P00519)
[24] = biological target: TSSK2 (human) (UniProt Q96PF2)
[25] = biological target: ABL2 (human) (UniProt P42684)
[26] = biological target: JAK2 JH1 JH2 (human) (UniProt O60674)
[27] = biological target: MAPK3 (human) (UniProt P27361)
[28] = biological target: PRKD2 (human) (UniProt Q9BZL6)
[29] = biological target: ROS1 (human) (UniProt P08922)
[30] = biological target: MAPK10 (human) (UniProt P53779)
[31] = biological target: DYRK4 (human) (UniProt Q9NR20)
[32] = biological target: MARK4 (human) (UniProt Q96L34)
[33] = biological target: IRAK1 (human) (UniProt P51617)
[34] = biological target: BRAF (human) (UniProt P15056)
[35] = biological target: PAK7 (human) (UniProt Q9P286)
[36] = biological target: CAMK2D (human) (UniProt Q13557)
[37] = biological target: STK17A (human) (UniProt Q9UEE5)
[38] = biological target: MAPK8 (human) (UniProt P45983)
[39] = biological target: PRKCB2 (human) (UniProt P05771)
[40] = biological target: EPHB1 (human) (UniProt P54762)

Sequence of PAK7 (human) (Q9P286 whole entry, looked up): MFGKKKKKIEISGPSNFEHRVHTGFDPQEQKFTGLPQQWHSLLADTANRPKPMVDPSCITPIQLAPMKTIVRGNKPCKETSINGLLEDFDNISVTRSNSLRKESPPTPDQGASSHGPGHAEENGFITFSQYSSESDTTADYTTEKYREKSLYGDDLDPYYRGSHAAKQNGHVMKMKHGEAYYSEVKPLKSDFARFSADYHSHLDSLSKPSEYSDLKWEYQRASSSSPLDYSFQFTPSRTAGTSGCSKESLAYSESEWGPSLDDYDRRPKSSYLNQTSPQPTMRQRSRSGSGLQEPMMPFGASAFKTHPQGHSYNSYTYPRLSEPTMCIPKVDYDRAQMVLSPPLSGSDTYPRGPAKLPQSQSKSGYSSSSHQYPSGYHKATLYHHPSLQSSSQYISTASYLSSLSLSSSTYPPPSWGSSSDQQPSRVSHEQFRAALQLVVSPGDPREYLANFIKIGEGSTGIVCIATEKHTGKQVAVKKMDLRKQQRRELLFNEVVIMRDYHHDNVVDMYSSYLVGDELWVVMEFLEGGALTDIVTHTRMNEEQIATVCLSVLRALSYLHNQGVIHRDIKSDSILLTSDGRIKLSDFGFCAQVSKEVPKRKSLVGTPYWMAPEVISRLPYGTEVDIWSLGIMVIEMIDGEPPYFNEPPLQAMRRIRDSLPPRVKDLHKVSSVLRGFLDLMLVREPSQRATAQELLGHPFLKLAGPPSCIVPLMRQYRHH
Sequence of ROS1 (human) (P08922 whole entry, looked up): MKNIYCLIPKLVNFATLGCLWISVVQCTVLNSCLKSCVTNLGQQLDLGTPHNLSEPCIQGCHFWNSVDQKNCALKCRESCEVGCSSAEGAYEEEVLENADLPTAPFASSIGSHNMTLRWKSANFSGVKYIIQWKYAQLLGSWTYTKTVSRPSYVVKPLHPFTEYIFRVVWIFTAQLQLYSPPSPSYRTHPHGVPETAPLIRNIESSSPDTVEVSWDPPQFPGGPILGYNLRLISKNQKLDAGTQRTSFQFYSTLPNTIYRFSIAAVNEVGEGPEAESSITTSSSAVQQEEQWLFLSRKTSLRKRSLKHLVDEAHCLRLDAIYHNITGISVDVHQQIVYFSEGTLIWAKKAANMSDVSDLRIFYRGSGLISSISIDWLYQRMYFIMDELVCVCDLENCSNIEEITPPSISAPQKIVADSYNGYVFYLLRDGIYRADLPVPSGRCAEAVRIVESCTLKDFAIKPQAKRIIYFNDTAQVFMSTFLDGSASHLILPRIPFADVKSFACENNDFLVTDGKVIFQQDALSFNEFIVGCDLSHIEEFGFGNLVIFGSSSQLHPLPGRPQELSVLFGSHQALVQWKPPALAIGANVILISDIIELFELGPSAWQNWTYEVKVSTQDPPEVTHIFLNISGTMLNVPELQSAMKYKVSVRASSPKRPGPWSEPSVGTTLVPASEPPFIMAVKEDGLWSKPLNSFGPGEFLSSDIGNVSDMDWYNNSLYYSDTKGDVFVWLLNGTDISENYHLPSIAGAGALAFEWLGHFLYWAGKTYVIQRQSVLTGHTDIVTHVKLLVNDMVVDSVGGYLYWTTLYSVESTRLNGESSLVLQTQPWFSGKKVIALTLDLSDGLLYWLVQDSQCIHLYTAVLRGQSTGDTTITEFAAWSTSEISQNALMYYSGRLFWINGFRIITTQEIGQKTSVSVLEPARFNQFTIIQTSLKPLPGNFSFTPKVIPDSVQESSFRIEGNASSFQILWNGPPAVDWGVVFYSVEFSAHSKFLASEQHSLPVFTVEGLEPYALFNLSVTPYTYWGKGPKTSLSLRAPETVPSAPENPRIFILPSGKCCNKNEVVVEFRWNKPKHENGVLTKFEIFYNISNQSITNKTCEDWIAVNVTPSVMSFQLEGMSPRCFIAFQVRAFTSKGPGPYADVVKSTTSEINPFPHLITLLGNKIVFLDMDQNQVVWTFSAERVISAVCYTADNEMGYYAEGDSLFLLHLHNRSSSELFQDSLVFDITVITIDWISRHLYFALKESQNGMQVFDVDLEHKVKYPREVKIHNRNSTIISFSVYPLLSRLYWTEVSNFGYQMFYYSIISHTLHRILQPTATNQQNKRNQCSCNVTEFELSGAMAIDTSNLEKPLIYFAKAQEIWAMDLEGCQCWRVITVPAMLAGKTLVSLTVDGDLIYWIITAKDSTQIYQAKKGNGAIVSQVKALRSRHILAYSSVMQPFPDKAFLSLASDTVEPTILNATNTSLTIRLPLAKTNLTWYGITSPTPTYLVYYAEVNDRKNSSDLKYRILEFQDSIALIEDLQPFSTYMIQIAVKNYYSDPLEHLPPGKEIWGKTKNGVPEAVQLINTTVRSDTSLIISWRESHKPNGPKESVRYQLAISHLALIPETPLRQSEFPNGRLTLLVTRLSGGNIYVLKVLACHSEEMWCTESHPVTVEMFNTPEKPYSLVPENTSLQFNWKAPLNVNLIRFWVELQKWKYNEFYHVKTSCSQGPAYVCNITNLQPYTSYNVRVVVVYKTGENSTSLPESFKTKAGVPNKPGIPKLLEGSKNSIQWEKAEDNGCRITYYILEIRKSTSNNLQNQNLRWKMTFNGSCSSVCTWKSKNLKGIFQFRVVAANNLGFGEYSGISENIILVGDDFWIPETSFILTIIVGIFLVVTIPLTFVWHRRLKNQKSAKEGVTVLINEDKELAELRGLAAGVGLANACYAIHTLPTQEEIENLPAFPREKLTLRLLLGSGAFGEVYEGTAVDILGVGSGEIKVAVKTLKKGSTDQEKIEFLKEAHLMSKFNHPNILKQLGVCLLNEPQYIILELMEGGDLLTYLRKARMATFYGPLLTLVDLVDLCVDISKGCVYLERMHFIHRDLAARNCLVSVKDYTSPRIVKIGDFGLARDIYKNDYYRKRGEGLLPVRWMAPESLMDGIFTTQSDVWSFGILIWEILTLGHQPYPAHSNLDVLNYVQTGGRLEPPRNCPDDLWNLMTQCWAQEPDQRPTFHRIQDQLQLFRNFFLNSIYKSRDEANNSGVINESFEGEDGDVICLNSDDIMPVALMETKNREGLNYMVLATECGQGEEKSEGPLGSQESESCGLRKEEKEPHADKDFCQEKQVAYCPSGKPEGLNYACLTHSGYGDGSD
Sequence of ROCK1 (human) (Q13464 whole entry, looked up): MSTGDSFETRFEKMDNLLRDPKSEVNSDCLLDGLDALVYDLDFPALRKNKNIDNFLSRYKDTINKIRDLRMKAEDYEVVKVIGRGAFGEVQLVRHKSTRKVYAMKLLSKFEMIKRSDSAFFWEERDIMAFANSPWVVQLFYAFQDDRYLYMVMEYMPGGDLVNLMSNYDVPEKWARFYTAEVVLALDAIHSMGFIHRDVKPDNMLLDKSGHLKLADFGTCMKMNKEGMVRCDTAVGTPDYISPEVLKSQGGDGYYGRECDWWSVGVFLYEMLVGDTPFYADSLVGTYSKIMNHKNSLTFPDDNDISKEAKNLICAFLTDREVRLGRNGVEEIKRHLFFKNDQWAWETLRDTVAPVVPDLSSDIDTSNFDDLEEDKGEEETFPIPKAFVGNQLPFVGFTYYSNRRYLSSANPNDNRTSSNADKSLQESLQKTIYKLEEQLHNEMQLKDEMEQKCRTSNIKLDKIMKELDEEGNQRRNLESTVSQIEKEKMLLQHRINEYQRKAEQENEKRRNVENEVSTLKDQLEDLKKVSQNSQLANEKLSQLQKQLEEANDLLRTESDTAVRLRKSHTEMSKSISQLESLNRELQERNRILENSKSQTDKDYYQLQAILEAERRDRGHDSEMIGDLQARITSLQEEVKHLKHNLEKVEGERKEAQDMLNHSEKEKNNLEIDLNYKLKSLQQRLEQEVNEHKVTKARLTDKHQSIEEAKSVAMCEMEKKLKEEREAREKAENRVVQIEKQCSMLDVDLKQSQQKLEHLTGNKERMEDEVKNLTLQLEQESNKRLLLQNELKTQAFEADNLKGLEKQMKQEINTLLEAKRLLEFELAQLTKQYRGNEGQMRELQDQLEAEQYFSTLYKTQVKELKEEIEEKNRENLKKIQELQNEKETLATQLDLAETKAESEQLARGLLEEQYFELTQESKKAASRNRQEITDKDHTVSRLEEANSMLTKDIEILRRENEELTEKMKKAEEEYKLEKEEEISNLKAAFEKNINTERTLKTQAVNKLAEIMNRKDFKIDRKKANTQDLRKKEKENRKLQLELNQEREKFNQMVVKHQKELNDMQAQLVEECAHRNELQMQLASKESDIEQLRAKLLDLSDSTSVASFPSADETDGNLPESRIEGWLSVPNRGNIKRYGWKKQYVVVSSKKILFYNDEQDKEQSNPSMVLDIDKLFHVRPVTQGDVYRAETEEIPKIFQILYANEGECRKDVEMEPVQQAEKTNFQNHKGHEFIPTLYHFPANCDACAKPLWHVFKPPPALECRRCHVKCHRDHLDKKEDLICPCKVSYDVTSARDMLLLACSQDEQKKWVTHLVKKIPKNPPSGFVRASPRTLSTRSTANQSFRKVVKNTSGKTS
Sequence of MAPK3 (human) (P27361 whole entry, looked up): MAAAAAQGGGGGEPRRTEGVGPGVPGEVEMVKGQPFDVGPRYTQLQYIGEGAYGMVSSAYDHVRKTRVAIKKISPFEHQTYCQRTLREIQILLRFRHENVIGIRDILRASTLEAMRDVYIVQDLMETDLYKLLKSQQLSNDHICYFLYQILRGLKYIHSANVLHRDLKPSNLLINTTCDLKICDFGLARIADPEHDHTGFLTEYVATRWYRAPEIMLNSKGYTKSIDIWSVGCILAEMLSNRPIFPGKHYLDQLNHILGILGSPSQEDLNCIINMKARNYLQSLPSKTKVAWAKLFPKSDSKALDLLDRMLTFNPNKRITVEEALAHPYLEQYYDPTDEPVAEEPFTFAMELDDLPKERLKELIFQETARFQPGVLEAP

Row | SMILES | residual activity [1] [%] | residual activity [2] [%] | residual activity [3] [%] | residual activity [4] [%] | residual activity [5] [%] | residual activity [6] [%] | residual activity [7] [%] | residual activity [8] [%] | residual activity [9] [%] | residual activity [10] [%] | residual activity [11] [%] | residual activity [12] [%] | residual activity [13] [%] | residual activity [14] [%] | residual activity [15] [%] | residual activity [17] [%] | residual activity [18] [%] | residual activity [19] [%] | residual activity [20] [%] | residual activity [21] [%] | other results
1 | Cc1ccc(NC2=CC(=O)c3sc(C)nc3C2=O)cc1 | 99.1 | 95.1 | 100 | 87.8 | 104 | 105 | 93 | 93.4 | 101 | 94.6 | 92 | 91.1 | 102 | 108 | 97.3 | 108 | 85.1 | 118 | 89.4 | 106 | residual activity [16]: 90.1%; residual activity [22]: 94%; residual activity [23]: 90.8%; residual activity [24]: 98.3%; residual activity [25]: 98.3%; residual activity [26]: 99.1%; residual activity [27]: 100%; residual activity [28]: 87.7%; residual activity [29]: 107%; residual activity [30]: 105%; residual activity [31]: 97.9%; residual activity [32]: 102%; residual activity [33]: 108%; residual activity [34]: 96.7%; residual activity [35]: 77.4%; residual activity [36]: 93.2%; residual activity [37]: 93.7%; residual activity [38]: 100%; residual activity [39]: 93.8%
2 | c1ccc(-c2n[nH]cc2-c2ccnc3ccccc23)nc1 | 101 | 96.7 | 103 | 96.7 | 96.6 | 76.9 | 95.5 | 88.7 | 96.5 | 102 | 101 | 99.7 | 106 | 95.6 | 105 | 90.6 | 100 | 94.8 | 94.6 | 74.6 | residual activity [40]: 98.7%; residual activity [16]: 96%; residual activity [22]: 92.6%; residual activity [23]: 77.1%; residual activity [24]: 83.5%; residual activity [25]: 67.8%; residual activity [26]: 107%; residual activity [27]: 101%; residual activity [28]: 66.9%; residual activity [29]: 102%; residual activity [30]: 92.9%; residual activity [31]: 104%; residual activity [32]: 105%; residual activity [33]: 124%; residual activity [34]: 95.7%; residual activity [35]: 97.1%; residual activity [36]: 101%; residual activity [37]: 117%; residual activity [39]: 92.1%
3 | COc1ccc(COc2ccc(Cc3cnc(N)nc3N)cc2OC)cc1 | 86.5 | 105 | 100 | 97.4 | 87.8 | 101 | 106 | 87.6 | 101 | 104 | 97.4 | 107 | 98.7 | 87.5 | 99.9 | 95.9 | 84.1 | 98.6 | 88.6 | 97.9 | residual activity [40]: 103%; residual activity [22]: 103%; residual activity [23]: 102%; residual activity [24]: 109%; residual activity [25]: 107%; residual activity [26]: 89.2%; residual activity [27]: 99.1%; residual activity [28]: 99.4%; residual activity [29]: 99.9%; residual activity [30]: 84.4%; residual activity [31]: 101%; residual activity [32]: 89.7%; residual activity [33]: 123%; residual activity [34]: 99%; residual activity [35]: 103%; residual activity [36]: 109%; residual activity [37]: 102%; residual activity [38]: 91.9%; residual activity [39]: 110%
